The text below walks through data of ChEMBL document CHEMBL1159355, “New dihydrostilbene derivatives from the leaves of Glycyrrhiza glabra and evaluation of their antioxidant activity” (J Nat Prod, 2003).

Structures are written as SMILES.

The experiment is described as follows: Antioxidant activity against linolenic acid oxidation assessed as inhibition rate constant for conjugated diene hydroperoxide formation. Format: functional.
On to `COc1c(O)cc(CCc2cc(O)cc(O)c2)cc1CC=C(C)C`, for which the Activity stood at 8 ×10⁴ /M/s.

Consider `CC(C)=CCc1cc(CCc2cc(O)cc(O)c2)ccc1O`, for which the Activity was found to be 6 ×10⁴ /M/s. Under `CC(C)=CCc1cc(CCc2cc(O)c(CC=C(C)C)c(O)c2)ccc1O` stands 7 ×10⁴ /M/s.

Turning to `CC(C)=CCc1cc(CCc2cc(O)c(CC=C(C)C)c(O)c2)cc(O)c1O`, the Activity turned out to be 11 ×10⁴ /M/s. Under `CC(C)=CCc1cc(CCc2cc(O)cc(O)c2)cc(O)c1O` stands 9 ×10⁴ /M/s.
